The Ki is a dissociation constant, usually derived from enzyme kinetics or from competition with a known ligand. Read a high Ki as weaker binding. A word on the EC50: it is the concentration at which the effect is half-maximal. A high value points to a less potent agent. As a reminder, the IC50 is the concentration needed to halve the response being measured. Lower therefore signals greater potency in that assay. In general, inhibition refers to the share of the control response that was lost under treatment. Usually bioavailability stands for dose-corrected exposure relative to a reference, in per cent. High values mean much systemic uptake, low ones little systemic uptake. For orientation: half-life means how long it takes for the measured level to halve. As a reminder, the Cmax is the highest concentration seen after dosing.

The target in series [1] is Human immunodeficiency virus type 1 protease (Human immunodeficiency virus 1, UniProt Q72874). The series is described as follows: Inhibitory activity against HIV protease.
Series [2] relates to CCRF-CEM. The experiment in a line: Antiviral activity against HIV-I 3b in CEM cells. It is filed as functional, cell-based. Conditions: Homo sapiens; call rule not given here.
The test system of series [3] is CCRF-CEM. The series is described as follows: Compound was tested for cellular toxicity against CEM cell line. It is filed as functional, cell-based. Conditions: Homo sapiens.
The test system of series [4] is CCRF-CEM. The series is described as follows: Antiviral activity against HIV-I 3b in CEM cells; No activity. It is filed as functional, cell-based, Homo sapiens.
Series [5] concerns the target Human immunodeficiency virus type 1 protease (Human immunodeficiency virus 1) (UniProt Q72874). The series is described as follows: Compound was tested for inhibitory activity against HIV protease. Conditions: concentration not given here.
Series [6] can be described thus: Ratio Cmax/EC50 was determined. It is filed as functional.
A short description of series [7]: Oral bioavailability in rat. It is filed as ADME, organism-based. Conditions: in vivo.
Series [8] is described as follows: Biological half-life was measured in plasma of rats. The note with it: rat. It is filed as ADME, organism-based.
A short description of series [9]: Maximum plasma concentration of compound present in rats at the dose of 37 mg/kg in 15 min. It is filed as ADME, organism-based. The arrangement: dose 37 mg/kg. Conditions: rat.
The nature of series [10]: Maximum plasma concentration of compound present in rats at the dose of 38 mg/kg in 15 min. It is filed as ADME, organism-based. The arrangement: dose 38 mg/kg. Conditions: rat.

Each structure is given as a SMILES string.

The compound `O=C(Nc1ccccc1C(=O)N[C@@H](Cc1ccccc1)[C@@H](O)[C@@H](O)[C@H](Cc1ccccc1)NC(=O)c1cccc(O)c1)OCc1ccccn1` registered an inhibitory constant (Ki) in series [1] of 1.7 nM. Further, in series [2], the EC50 came out at 900 nM.
For `O=C(Nc1ccccc1C(=O)N[C@@H](Cc1ccccc1)C[C@H](O)[C@H](Cc1ccccc1)NC(=O)OCc1cccnc1)OCc1ccccn1`, in that order: 0.01 nM and 350 nM.
The corresponding values for `Nc1ccc(C(=O)N[C@@H](Cc2ccccc2)[C@@H](O)C[C@H](Cc2ccccc2)NC(=O)c2ccccc2NC(=O)OCc2ccccn2)cc1` are 1.5 nM and 500 nM.
Regarding `CC(C)(C)OC(=O)N[C@@H](Cc1ccccc1)[C@H](O)[C@H](O)[C@H](Cc1ccccc1)NC(=O)c1ccccc1NC(=O)OCc1ccccn1`, in [1], the affinity corresponds to a Ki of 0.45 nM. The IC50 in series [3] amounted to 21000 nM. In addition, the response in series [2] was half-maximal at 490 nM (EC50).
For `Nc1cccc(C(=O)N[C@@H](Cc2ccccc2)[C@@H](O)C[C@H](Cc2ccccc2)NC(=O)c2ccccc2NC(=O)OCc2ccccn2)c1`, the Ki in [1] came to 0.4 nM. The EC50 in [2] worked out at 250 nM.
Turning to `CCOC(=O)N[C@H](C(=O)N[C@@H](Cc1ccccc1)[C@@H](O)C[C@H](Cc1ccccc1)NC(=O)c1ccccc1NC(=O)OCc1ccccn1)[C@@H](C)CC`, the inhibitory constant (Ki) in series [1] was determined as 0.02 nM. Further, the EC50 in series [2] is 50 nM.
The corresponding values for `O=C(Nc1ccccc1C(=O)N[C@@H](Cc1ccccc1)C[C@H](O)[C@H](Cc1ccccc1)NC(=O)c1cscn1)OCc1ccccn1` are 4.7 nM and 3000 nM.
Consider `Nc1ccc(C(=O)N[C@@H](Cc2ccccc2)[C@H](O)[C@H](O)[C@H](Cc2ccccc2)NC(=O)c2ccccc2NC(=O)OCc2ccccn2)cc1`, for which, in series [4], the EC50 entry is given as “Not Active”. Moreover, in [1], the inhibition constant (Ki) was 6.6 nM.
The compound `Cc1nc(C(=O)N[C@@H](Cc2ccccc2)[C@@H](O)C[C@H](Cc2ccccc2)NC(=O)c2ccccc2NC(=O)OCc2ccccn2)cs1` returned an inhibition in [5] of 61%. The EC50 in series [2] is > 10000 nM.
In the case of `O=C(Nc1ccccc1C(=O)N[C@@H](Cc1ccccc1)C[C@H](O)[C@H](Cc1ccccc1)NC(=O)c1cccc(O)c1)OCc1ccccn1`, in [1], the affinity corresponds to a Ki of 0.85 nM. This compound also showed a half-maximal effective concentration (EC50) in [2] of 300 nM.
In series [1], `Cc1ccccc1C(=O)N[C@@H](Cc1ccccc1)[C@@H](O)C[C@H](Cc1ccccc1)NC(=O)c1ccccc1NC(=O)OCc1ccccn1` displayed a Ki of 0.27 nM. The EC50 in [2] was found to be 500 nM.
As to `CC(C)(C)OC(=O)N[C@@H](Cc1ccccc1)[C@@H](O)[C@@H](O)[C@H](Cc1ccccc1)NC(=O)c1ccccc1NC(=O)OCc1ccccn1`, the affinity in series [1], expressed as Ki, was 0.13 nM. In [2], the concentration giving a half-maximal response (EC50) is 400 nM.
For `CC(C)(C)OC(=O)N[C@@H](Cc1ccccc1)C[C@H](O)[C@H](Cc1ccccc1)NC(=O)c1ccccc1NC(=O)OCc1ccccn1`, in that order: 0.85 nM and 490 nM.
For `O=C(Nc1ccccc1C(=O)N[C@@H](Cc1ccccc1)[C@H](O)[C@H](O)[C@H](Cc1ccccc1)NC(=O)c1ccccc1NC(=O)OCc1ccccn1)OCc1ccccn1`, in that order: 0.07 nM and 60 nM.
Compound `Cc1c(O)cccc1C(=O)N[C@@H](Cc1ccccc1)[C@@H](O)[C@@H](O)[C@H](Cc1ccccc1)NC(=O)c1ccccc1NC(=O)OCc1ccccn1` showed a Ki in [1] of 0.09 nM. The same compound registered an EC50 in [2] of 20 nM.
Turning to `O=C(Nc1ccccc1C(=O)N[C@@H](Cc1ccccc1)C[C@H](O)[C@H](Cc1ccccc1)NC(=O)OCc1cncs1)OCc1ccccn1`, in [6], the Ratio was > 30. This compound had a bioavailability in series [7] of 30%. This compound gave a Ki in series [1] of 0.03 nM. The same compound gave a half-life in [8] of 8 h. This compound showed a concentration for a half-maximal effect (EC50) in series [2] of 200 nM.
In [1], `Cc1c(O)cccc1C(=O)N[C@@H](Cc1ccccc1)C[C@H](O)[C@H](Cc1ccccc1)NC(=O)c1ccccc1NC(=O)OCc1ccccn1` gave a Ki of 0.68 nM. In addition, the EC50 in [2] is > 1000 nM.
`O=C(Nc1ccccc1C(=O)N[C@@H](Cc1ccccc1)C[C@H](O)[C@H](Cc1ccccc1)NC(=O)c1ccno1)OCc1ccccn1` returned a Ki in series [1] of 1.2 nM. Moreover, the 50% effective concentration (EC50) in series [2] worked out at 2000 nM.
For `CC(C)(C)OC(=O)N[C@@H](Cc1ccccc1)[C@@H](O)C[C@H](Cc1ccccc1)NC(=O)c1ccccc1NC(=O)OCc1ccccn1`, in that order: 0.13 nM and 600 nM.
In series [7], `Cc1c(O)cccc1C(=O)N[C@@H](Cc1ccccc1)[C@@H](O)C[C@H](Cc1ccccc1)NC(=O)c1ccccc1NC(=O)OCc1ccccn1` gave a bioavailability of 1%. Also, the concentration in series [9] peaked (Cmax) at 30 nM. The compound also showed a Ki in series [1] of 0.06 nM. Besides, in [8], the half-life turned out to be 2.22 h. The EC50 in series [2] was found to be 30 nM.
Regarding `O=C(Nc1ccccc1C(=O)N[C@@H](Cc1ccccc1)C[C@H](O)[C@H](Cc1ccccc1)NC(=O)OCc1cscn1)OCc1ccccn1`, the Ki in series [1] is 0.62 nM. Further, the EC50 in [2] worked out at 600 nM.
For the compound `Cc1c(N)cccc1C(=O)N[C@@H](Cc1ccccc1)[C@@H](O)C[C@H](Cc1ccccc1)NC(=O)c1ccccc1NC(=O)OCc1ccccn1`, the bioavailability in series [7] is < 2%. In addition, the inhibitory constant (Ki) in series [1] worked out at 0.12 nM. Also, the EC50 in series [2] was found to be 60 nM.
In the case of `O=C(Nc1ccccc1C(=O)N[C@@H](Cc1ccccc1)[C@H](O)[C@H](O)[C@H](Cc1ccccc1)NC(=O)c1cccc(O)c1)OCc1ccccn1`, the EC50 result in [4] was “Not Active”. The Ki in series [1] worked out at 0.5 nM.
Regarding `O=C(Nc1ccccc1C(=O)N[C@@H](Cc1ccccc1)C[C@H](O)[C@H](Cc1ccccc1)NC(=O)O[C@@H]1CCOC1)OCc1ccccn1`, in [10], the highest level (Cmax) was 1040 nM. The bioavailability in [7] amounted to 6%. In addition, the affinity in [1] corresponds to a Ki of 0.04 nM. In addition, the EC50 in series [2] worked out at 30 nM.
In turn, `O=C(Nc1ccccc1C(=O)N[C@@H](Cc1ccccc1)[C@H](O)[C@H](O)[C@H](Cc1ccccc1)NC(=O)c1ccno1)OCc1ccccn1` showed a Ki in series [1] of 0.4 nM. Further, in series [2], a half-maximal response (EC50) required 800 nM.
The corresponding values for `CCOC(=O)N[C@@H](C(=O)N[C@@H](Cc1ccccc1)[C@@H](O)C[C@H](Cc1ccccc1)NC(=O)c1ccccc1NC(=O)OCc1ccccn1)C(C)C` are 0.03 nM and 7 nM.
In the case of `O=C(Nc1ccccc1C(=O)N[C@@H](Cc1ccccc1)[C@H](O)[C@H](O)[C@H](Cc1ccccc1)NC(=O)O[C@@H]1CCOC1)OCc1ccccn1`, in [1], the Ki came to 0.07 nM. Also, the EC50 in series [2] is 60 nM.
In series [1], `O=C(Nc1ccccc1C(=O)N[C@@H](Cc1ccccc1)[C@@H](O)C[C@H](Cc1ccccc1)NC(=O)c1cccc(O)c1)OCc1ccccn1` came in with a Ki of 8.6 nM. In [2], the concentration giving a half-maximal response (EC50) is > 10000 nM.
